Assay results from ChEMBL document CHEMBL1201862, “PubChem BioAssay data set” (2004).
The source made the active and inactive calls. Rule as the data show it, for most assays here: actives have a measured EC50 and inactives only a lower limit.

What was measured:
[1] = molecular target: T1, Replicative DNA helicase DnaB (Mycobacterium tuberculosis, UniProt P9WMR3); experiment: DnaB intein splicing inhibitors, dose response, biochemical, cell-free fluorescence (AID 449749); assay type: functional
T1 sequence (P9WMR3 whole entry): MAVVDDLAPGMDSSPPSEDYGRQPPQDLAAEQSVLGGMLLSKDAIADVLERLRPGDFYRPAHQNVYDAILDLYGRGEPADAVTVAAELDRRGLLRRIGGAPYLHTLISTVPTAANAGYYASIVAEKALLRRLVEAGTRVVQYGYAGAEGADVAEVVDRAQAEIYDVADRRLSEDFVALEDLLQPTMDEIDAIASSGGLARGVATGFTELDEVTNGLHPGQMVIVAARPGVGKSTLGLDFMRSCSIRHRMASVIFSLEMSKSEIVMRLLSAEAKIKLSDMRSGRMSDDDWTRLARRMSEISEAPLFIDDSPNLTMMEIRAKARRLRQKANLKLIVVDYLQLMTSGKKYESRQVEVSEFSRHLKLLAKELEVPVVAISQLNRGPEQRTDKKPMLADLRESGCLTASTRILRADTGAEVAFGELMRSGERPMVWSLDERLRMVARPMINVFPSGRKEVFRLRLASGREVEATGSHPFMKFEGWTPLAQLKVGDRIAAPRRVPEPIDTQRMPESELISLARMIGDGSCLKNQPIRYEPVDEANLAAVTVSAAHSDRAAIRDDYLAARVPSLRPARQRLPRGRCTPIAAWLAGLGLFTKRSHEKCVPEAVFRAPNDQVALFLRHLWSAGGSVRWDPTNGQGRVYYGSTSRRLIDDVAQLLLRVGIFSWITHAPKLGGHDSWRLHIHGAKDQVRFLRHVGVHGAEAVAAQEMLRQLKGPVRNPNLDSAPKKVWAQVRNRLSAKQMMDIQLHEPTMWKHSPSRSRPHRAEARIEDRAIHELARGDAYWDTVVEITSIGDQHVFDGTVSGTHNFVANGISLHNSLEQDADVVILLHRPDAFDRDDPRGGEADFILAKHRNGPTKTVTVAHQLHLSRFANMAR

[2] = inhibitors of intracellular T. cruzi replication, confirmation, NIH3T3 host cells, beta-gal luminescence (AID 2044); assay type: functional, cell-based;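 also: intracellular parasites grown in NIH/3T3 mouse fibroblasts as host cells; luminescent beta-galactosidase reporter signal from transgenic T. cruzi replicating inside host cells; inhibitors lower the luminescence signal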
Protein RecA = molecular target: T2, Protein RecA (Mycobacterium tuberculosis, UniProt P9WHJ3); experiment: Fluorescence Cell-Free Homogeneous Dose Retest to Identify Inhibitors of RecA-Intein Splicing Activity. [Related pubchem assays (depositor defined):AID2097, AID2223, AID489010, AID492950]; assay type: functional
T2 sequence (P9WHJ3 whole entry): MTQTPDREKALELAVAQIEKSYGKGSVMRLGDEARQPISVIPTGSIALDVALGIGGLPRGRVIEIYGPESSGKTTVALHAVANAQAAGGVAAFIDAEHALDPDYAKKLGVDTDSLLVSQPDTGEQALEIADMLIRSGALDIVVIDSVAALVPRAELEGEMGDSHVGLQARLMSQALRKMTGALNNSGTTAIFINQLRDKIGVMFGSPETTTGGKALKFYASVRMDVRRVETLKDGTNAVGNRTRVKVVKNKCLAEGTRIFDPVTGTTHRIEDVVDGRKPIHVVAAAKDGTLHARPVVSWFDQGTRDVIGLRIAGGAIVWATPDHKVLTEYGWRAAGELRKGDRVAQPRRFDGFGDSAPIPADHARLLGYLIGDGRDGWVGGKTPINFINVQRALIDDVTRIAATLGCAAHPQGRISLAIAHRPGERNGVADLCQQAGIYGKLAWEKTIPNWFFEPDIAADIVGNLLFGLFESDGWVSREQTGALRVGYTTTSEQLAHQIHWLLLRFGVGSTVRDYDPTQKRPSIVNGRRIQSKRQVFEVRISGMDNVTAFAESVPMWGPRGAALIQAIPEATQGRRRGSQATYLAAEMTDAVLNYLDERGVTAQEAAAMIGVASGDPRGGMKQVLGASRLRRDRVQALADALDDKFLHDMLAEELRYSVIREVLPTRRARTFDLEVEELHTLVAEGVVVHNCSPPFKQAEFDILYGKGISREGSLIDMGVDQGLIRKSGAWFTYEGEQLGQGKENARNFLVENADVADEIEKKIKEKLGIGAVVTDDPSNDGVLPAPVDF

Streptococcus = experiment: Group A Streptococcus viability loss, dose response, counter-screen for streptokinase expression inhibitor project, luminescence, BacTiterGlo (AID 1915); assay type: functional, organism-based;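 also: potency for reduction of bacterial viability or growth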
Streptokinase A = molecular target: T3, Streptokinase A (Streptococcus pyogenes serotype M1, UniProt P10520); experiment: S. pyogenes streptokinase expression inhibitors, potency, dose response, plasminogen activation absorbance, OD405 (AID 1914); assay type: functional, Streptococcus pyogenes M1 GAS;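 also: secreted streptokinase activity via plasminogen activation per viability signal from cell pellet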
T3 sequence (P10520 whole entry): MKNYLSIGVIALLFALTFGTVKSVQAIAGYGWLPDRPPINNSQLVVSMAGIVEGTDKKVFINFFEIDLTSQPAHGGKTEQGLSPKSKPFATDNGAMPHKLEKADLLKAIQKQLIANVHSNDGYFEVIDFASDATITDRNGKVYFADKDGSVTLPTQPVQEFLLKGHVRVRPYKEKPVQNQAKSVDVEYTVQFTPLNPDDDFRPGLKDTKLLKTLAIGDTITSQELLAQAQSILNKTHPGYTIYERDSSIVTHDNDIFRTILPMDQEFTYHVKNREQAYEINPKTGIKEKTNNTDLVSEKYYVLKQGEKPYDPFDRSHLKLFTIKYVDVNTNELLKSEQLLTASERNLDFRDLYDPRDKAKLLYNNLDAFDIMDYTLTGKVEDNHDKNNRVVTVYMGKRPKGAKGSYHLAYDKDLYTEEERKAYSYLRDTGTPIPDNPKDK

[3] = system: Streptococcus sp. 'group A'; experiment: growth inhibition of control SK(-) GAS strain, dose response, counter-screen for streptokinase expression inhibitor project, luminescence, kanamycin, BacTiterGlo, confirmation (AID 1900); assay type: functional, organism-based
[4] = cytotoxicity toward NIH3T3 fibroblasts, dose response, counter-screen, cell-based, ATP luminescence, mouse fibroblasts (AID 2010); assay type: functional;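 also: cells exposed to compound for about 90 hours before reading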
Cytochrome P450 1A2 = molecular target: T4, Cytochrome P450 1A2 (Homo sapiens, UniProt P05177);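 also: PubChem cytochrome P450 panel assay, CYP1A2 panel member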
T4 sequence (P05177 whole entry): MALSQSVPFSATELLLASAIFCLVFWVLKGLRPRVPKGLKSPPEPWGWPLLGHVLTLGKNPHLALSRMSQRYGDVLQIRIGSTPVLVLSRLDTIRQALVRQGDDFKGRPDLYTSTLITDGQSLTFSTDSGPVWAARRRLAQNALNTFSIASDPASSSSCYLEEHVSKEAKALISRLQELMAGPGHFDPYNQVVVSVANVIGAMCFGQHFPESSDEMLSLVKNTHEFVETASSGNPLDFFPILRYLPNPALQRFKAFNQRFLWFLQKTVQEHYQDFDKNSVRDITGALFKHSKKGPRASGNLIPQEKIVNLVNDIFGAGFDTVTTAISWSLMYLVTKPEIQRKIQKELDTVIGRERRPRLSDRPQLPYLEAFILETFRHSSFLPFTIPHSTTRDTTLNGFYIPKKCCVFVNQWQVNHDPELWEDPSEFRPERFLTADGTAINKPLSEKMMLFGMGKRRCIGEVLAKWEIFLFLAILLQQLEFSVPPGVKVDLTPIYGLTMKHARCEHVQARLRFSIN

O=[N+]([O-])C(/C=C(/Cl)[N+](=O)[O-])=C(N1CCCCC1)N1CCCCC1
AC50 [1]: 14.5 µM (active)
EC50 [2]: 1.25 µM (active)
EC50 (Protein RecA): 8.34 µM (active)

COC(=O)CSc1nc2sc3c(c2c(=O)n1C1CCCCC1)CCN(C)C3
AC50 [1]: > 120 µM (inactive)
EC50 (Protein RecA): 31.4 µM (active)

Cc1cc(Oc2ccc(-c3ccccc3)cc2)nc(N2CCOCC2)n1
EC50 (Streptococcus): > 150 µM (not active)
EC50 (Streptokinase A): 35.4 µM (active)
EC50 [3]: 49.7 µM (active)

C=C(C)c1cccc(C(C)(C)NC(=O)NC2CCN(Cc3ccccc3)CC2)c1
EC50 [2]: 0.103 µM (active)
EC50 [4]: > 60 µM (not active)

CN1CCN(c2nc(-c3ccccc3)nc(-c3ccc(F)cc3)c2C#N)CC1
EC50 [2]: 1.25 µM (active)
EC50 [4]: > 60 µM (not active)

CCOC(=O)c1cc(-c2ccc(F)cc2)n(CCC(=O)NC2CCN(Cc3ccccc3)CC2)c1C
EC50 [2]: 0.773 µM (active)
EC50 [4]: > 60 µM (not active)

Clc1cccc(Nc2ncnc3c2cnn3-c2ccccc2)c1
EC50 (Streptococcus): 6.82 µM (active)
EC50 (Streptokinase A): > 150 µM (not active)
EC50 [3]: 7.78 µM (active)

COc1ccc(C2CC(c3ccccc3)=NN2c2ccc(S(N)(=O)=O)cc2)cc1 (configuration not stated)
EC50 [2]: 2.83 µM (active)
EC50 [4]: > 60 µM (inconclusive)

COc1ccc(Br)cc1C(=O)Nc1ccc(Cc2ccncc2)cc1
EC50 [2]: 3.4 µM (active)
EC50 [4]: > 60 µM (not active)

CN(C)CCNC(=O)c1cc(Sc2ccc(F)cc2)nc2ccccc12
EC50 [2]: 0.282 µM (active)
EC50 [4]: > 60 µM (not active)

CCOC(=O)c1cc(-c2ccc(OC(F)F)cc2)nc2c1c(=O)[nH]c(=O)n2C
EC50 (Streptococcus): 1.97 µM (active)
EC50 [3]: 0.458 µM (active)

CCCC(=O)OCCNc1cc(SCc2ccco2)c2nonc2c1[N+](=O)[O-]
AC50 [1]: 4.88 µM (active)
EC50 (Protein RecA): 1.98 µM (active)

COc1ccc(C2=NN(C(=O)/C=C/c3ccccc3)C(c3ccccc3)C2)c(OC(C)=O)c1 (configuration not stated)
AC50 [1]: > 380 µM (inactive)
EC50 (Protein RecA): 53.8 µM (active)

O=C(O)COc1ccc(OCCNC[C@@H](O)COc2ccccc2)cc1
AC50 (Cytochrome P450 1A2): 39.8 µM (inconclusive)

Nc1nc(-c2ccc(Br)cc2)c(S(=O)(=O)c2ccccc2)s1
AC50 [1]: 4.22 µM (active)
EC50 (Protein RecA): > 380 µM (inactive)

CCC[C@@H]1C[C@@]1(CCC)C(NC(=O)c1ccco1)c1ccc(Cl)cc1 (some centres not stated)
AC50 (Cytochrome P450 1A2): 25.1 µM (inconclusive)

CCCc1n[nH]c2c1C(c1cccc(OC)c1)C(C#N)=C(N)O2 (configuration not stated)
AC50 [1]: 19.3 µM (active)
EC50 (Protein RecA): 9.09 µM (active)

Cc1ccc(NC(=S)NC(=O)c2c(-c3ccccc3Cl)noc2C)cc1
AC50 (Cytochrome P450 1A2): 8.91 µM (inconclusive)

CS(=O)(=O)N1CCC2(CC1)CN(c1ccccc1)C2
AC50 (Cytochrome P450 1A2): 20 µM (inconclusive)

COc1ccc(N=Nc2cc(-c3ccccc3)ccc2O)cc1
EC50 (Streptococcus): > 150 µM (not active)
EC50 (Streptokinase A): 7.22 µM (active)
EC50 [3]: 34.7 µM (active)

O=C(CCc1ccccc1)Nc1nnc(-c2ccc3c(c2)CCCC3)o1
EC50 (Streptococcus): 26.2 µM (active)
EC50 (Streptokinase A): > 150 µM (not active)
EC50 [3]: 3.21 µM (active)

CCN1C(=O)C(=NNc2cccc(S(=O)(=O)N3CCOCC3)c2)C(=O)N(CC)C1=S
AC50 [1]: > 380 µM (inactive)
EC50 (Protein RecA): > 380 µM (inconclusive)

Cc1cccn2c(CNCC3(c4ccccc4)CCCC3)c(C(=O)N3CCOCC3)nc12
AC50 [1]: > 380 µM (inactive)
EC50 (Protein RecA): > 380 µM (inactive)

CCOC(=O)Cc1n[nH]c2c1C(c1ccsc1)C(C#N)=C(N)O2 (configuration not stated)
AC50 [1]: > 380 µM (inactive)
EC50 (Protein RecA): 31.3 µM (active)

CN(N)C(S)=Nc1ccc(Cl)cc1
AC50 [1]: > 380 µM (inactive)
EC50 (Protein RecA): > 380 µM (inactive)

CCC(C)Sc1cc(C(F)(F)F)c(C(=O)Nc2ccc(Cl)cc2)cn1 (configuration not stated)
EC50 (Streptococcus): 7.94 µM (active)
EC50 (Streptokinase A): 2.38 µM (active)
EC50 [3]: 4.03 µM (active)

COCCn1c(=O)c(-c2cc(F)cc(F)c2)nc2cnc(Nc3cccc(OC)c3)nc21
AC50 (Cytochrome P450 1A2): 2.51 µM (inconclusive)

COc1ccc2cc(C(=O)/C=C/c3cc(OC)c(O)c(OC)c3)ccc2c1
EC50 (Streptococcus): 14.7 µM (active)
EC50 (Streptokinase A): > 150 µM (not active)
EC50 [3]: 5.61 µM (active)

CSc1ccc(NC(=O)Nc2cccn(Cc3ccccc3F)c2=O)cc1
EC50 [2]: 4.33 µM (active)
EC50 [4]: > 60 µM (not active)

O=C(/C=C\c1ccc(Cl)cc1)N[C@@]12CCC(=O)[C@@H]3Oc4c(O)ccc5c4[C@@]31CCN(CC1CC1)[C@@H]2C5
AC50 (Cytochrome P450 1A2): 39.8 µM (inconclusive)

Cc1ccc(NC(=O)C2CCCN(C(=O)c3ccc(Cl)cc3)C2)cc1S(=O)(=O)N1CCOCC1 (configuration not stated)
EC50 [2]: 26.6 µM (active)
EC50 [4]: > 60 µM (not active)

c1ccc(CCNc2ccccn2)nc1
AC50 (Cytochrome P450 1A2): 5.01 µM (inconclusive)

CCOc1cc(/C=N\NC(=O)OC(C)(C)C)ccc1OC(=O)c1ccco1
AC50 [1]: 12.8 µM (active)
EC50 (Protein RecA): 19.8 µM (active)

C=C1S/C(=N/c2ccccc2Cl)N(C(=O)c2sc3ccccc3c2Cl)C12CCCCC2
EC50 (Streptococcus): > 150 µM (not active)
EC50 (Streptokinase A): 19.8 µM (active)
EC50 [3]: 20.2 µM (active)

OCCNc1nc(Nc2ccc(Br)cc2)nc2ccccc12
EC50 [2]: 0.801 µM (active)
EC50 [4]: > 30 µM (not active)

CCOC(=O)C1=C(C)NC(C)=C(C(=O)OC)[C@@H]1c1cccc([N+](=O)[O-])c1 [(S)-NITRENDIPINE]
AC50 (Cytochrome P450 1A2): 15.8 µM (inconclusive)
